{"source": "patent US20070059299A1", "about": "“S-adenosyl methionine decarboxylase inhibition for the treatment of a herpes simplex virus infection” (Institut National de la Sante et de la Recherche Medicale …, priority 2002, published 2007)", "key": {"intracellular spermine": {"test_system": "intracellular spermine", "assay": "Spermine quantitation in HEp2 cells exposed to MGBG (dansylation, RP-HPLC)", "format": "cell-based", "settings": "for Relative amount of intracellular spermine, HSV infected + MGBG / Relative amount of intracellular spermine, Mock infected + MGBG: HEp2 cells, mock-infected cells without MGBG = 100%, means±SE, 3 experiments; for Relative amount of intracellular spermine, HSV infected + MGBG: 100 μM MGBG added with virus", "protocol": "HEp2 cells were grown in 6-well plates (˜10^6 cells/well). Cells were infected or treated with 100 μM MGBG for 12 h or 24 h. For HSV-1-infected cells, MGBG was added simultaneously with viral suspension. Cell extracts and standards (spermine and diaminoheptane as an internal standard, (DAH)) were dansylated according to the procedure described by Seiler (Seiler, 1970) and were then treated using the protocol adapted from Besson (Besson et al., 1986). Dansylation was proceeded in glass vials by mixing 40 μl of HClO4 extracts, 10 μl of DAH , and 100 μl of 0.3 M Na2CO3 (Merck). The reaction was initiated by adding 200 μl of freshly prepared dansyl chloride solution (5mg/ml) in acetone (SDS, spectrosol grade) and allowed to proceed overnight in the dark at room temperature. After dansylation, each sample was diluted with 700 μl H2O, vortexed and applied to a Waters Sep-Pak C18 cartridge (Birnbaum et al., 1988). After washing with 4 ml of 20% methanol, the polyamine containing fraction was eluted with 2 ml of 100% methanol. The separation of polyamines and the quantification of spermine were performed by reverse phase high performance chromatography (RP-HPLC) using a Waters system composed of two models 510 pumps, a Wisp 700 autosampler and a NEC APC4 data module recorder integrator. A Merck F 1050 fluorescence spectrophotometer detected fluorescence (350 nm excitation and 495 nm emission). The separations were performed on a RP18 Merck Lichrocart (25×4 mm, 5 μm) precolumn and a RP18, 100 CH Merck column (125×4 mm; spherical packing 5 μm). The solvent system was an acetonitrile/water gradient at a flow rate of 1 ml/min of acetonitrile 60% in water for 7 min, then acetonitrile 90% for 10 min and a 98% acetonitrile purge for 5 min. The column was reequilibrated to initial 60% acetonitrile conditions during 10 min between two successive injections. For each determination, 50 or 100 μl of dansylated samples were injected onto the column equilibrated in 60% acetonitrile. Spermine was identified by its retention time compared to that of standard spermine. Peak areas were automatically measured by the integrator and evaluated according to the calibration method (Birnbaum et al., 1988). Spermine standard from 10 to 70 pmol was reacted and chromatographed to establish linear standard curve which was used to estimate the absolute amounts of spermine. The absolute limit of detection per injection was 1 pmol for dansylated spermine. Two blank injections were routinely run between calibrations and sample analysis. Mock-infected cells grown in the absence of MGBG were used as the control of intracellular spermine content and was therefore used as 100% value.\nMGBG is known to alter the polyamine synthesis in inactivating SAMDC. Therefore, the amount of intracellular spermine was assessed in mock-infected and infected cells after MGBG exposure. Cells were grown for 12 h and 24 h in the presence of 100 μM MGBG which was added to cell medium simultaneously with virus particles for HSV-1 infected cells. Intracellular spermine content was estimated by standard procedure (Besson et al., 1986; Birnbaum et al., 1988; Seiler, 1970)."}, "[1]": {"test_system": "HSV-1 macroplaque strain (MP)", "format": "cell-based", "settings": "for less syncytia formed than in control infected without MGBG: no pre-treatment, 24 h", "protocol": "HEp2 cells were grown as monolayers in Eagle's minimum essential medium (E-MEM) supplemented or not with 5% heat-inactivated foetal calf serum (FCS) and supplemented with 100 U/ml penicillin and 100 U/ml streptomycin. The cells were maintained at 37° C. under 5% CO2. The HSV-1 macroplaque strain (MP), obtained from B. Jacquemont (Lyon, France), was a gift of B. Roizman (Chicago, Ill., U.S.A.), and was used throughout this study. Viruses were grown in HEp2 cells.\nHEp2 cells were grown in 6-well plates (˜10^6 cells/well) and infected just before confluence with a multiplicity of infection (m.o.i.) of 0.5 plaque-forming units (PFU) per cell in E-MEM in absence of FCS, except for some experiments. After adsorption of the virus for 1 h at 33° C. under 5% CO2, the medium containing the virus suspension was removed and the cells were washed with E-MEM, then incubated in E-MEM without FCS at 37° C. for different periods of times until harvest. Times post-infection (p.i.) were calculated from the time of addition of the virus suspension. HEp2 cells were exposed to MGBG treatment for different times. When cells were pre-treated with MGBG prior infection, MGBG was added to cell medium 6 h or 24 h prior infection until harvest. In non pre-treated cells, MGBG was added simultaneously with virus suspension, or 2 h, 4 h or 6 h latter. When cells were treated for more than 24 h, medium was replaced every 24 h with fresh medium containing the same concentration of MGBG.\nAccordingly, the effect of inactivation of enzymes involved in polyamine biosynthesis upon HSV-1 infection inhibition was assessed. The HSV-1 MP strain was used throughout this study for its ability to induce the formation of large syncytia from infected cells. Therefore, it was possible to easily and quickly investigate the inhibition of viral replication at the level of syncytia formation.\nTo investigate the effect of the concentration of MGBG on viral infection, HEp2 cells were infected with 0.5 PFU of HSV-1 per cell in FCS free medium in which 10 μM to 300 μM MGBG was added from the adsorption step of the virus until the end of the experiment. After 24 h of infection, the formation of syncytia was observed, and the number of syncytia was estimated by counting using the optical microscope.\nHEp2 cell were pre-treated with MGBG by incubation in FCS free medium containing 10 to 300 μM MGBG 6h to 24 h before infection. Then cells were infected as described above and MGBG was maintained in the medium until the end of the experiment."}}, "note": "Like-named read-outs stand apart in the source and are kept apart here.", "data": [{"compound": "CC(C=NNC(=N)N)=NNC(=N)N", "note": "[MGBG, methylglyoxal bis(guanylhydrazone)]", "values": [{"measurement": "amount of intracellular spermine relative to control mock-infected cells grown without MGBG", "setting": "intracellular spermine; 100 μM MGBG, both mock-infected and HSV-1-infected cells", "result": "60-65%"}, {"measurement": "Relative amount of intracellular spermine, HSV infected + MGBG", "setting": "intracellular spermine; 12 h", "result": "61.8 ± 9.0", "unit": "%"}, {"measurement": "Relative amount of intracellular spermine, HSV infected + MGBG", "setting": "intracellular spermine; 24 h", "result": "66.2 ± 7.0", "unit": "%"}, {"measurement": "Relative amount of intracellular spermine, Mock infected + MGBG", "setting": "intracellular spermine; 100 μM MGBG, 12 h", "result": "60.6 ± 1.4", "unit": "%"}, {"measurement": "Relative amount of intracellular spermine, Mock infected + MGBG", "setting": "intracellular spermine; 100 μM MGBG, 24 h", "result": "65.3 ± 14.3", "unit": "%"}, {"measurement": "size and number of syncytia", "setting": "[1]; 10 μM MGBG added simultaneously with virus, 0.5 PFU/cell, FCS free, 24 h of infection", "result": "the size but not the number of syncytia was reduced"}, {"measurement": "less syncytia formed than in control infected without MGBG", "setting": "[1]; 50 μM MGBG added with virus, 0.5 PFU/cell, FCS free", "result": 50, "unit": "%"}, {"measurement": "viral replication (syncytia)", "setting": "[1]; 100 μM MGBG added 2 h after the beginning of infection", "result": "totally inhibited"}, {"measurement": "viral replication (syncytia)", "setting": "[1]; 100 μM MGBG added 4 h or 6 h after the adsorption step", "result": "partially inhibited"}, {"measurement": "less syncytia formed than in control infected without MGBG", "setting": "[1]; 100 μM MGBG added with virus, 0.5 PFU/cell, FCS free", "result": 95, "unit": "%"}, {"measurement": "viral infection compared to cells infected without MGBG", "setting": "[1]; 100 μM MGBG alone added simultaneously with viral suspension", "result": "strongly reduced"}, {"measurement": "less syncytia formed than in control infected without MGBG", "setting": "[1]; 200 μM MGBG added with virus, 0.5 PFU/cell, FCS free", "result": "about 99%"}, {"measurement": "inhibition of viral infection in cells grown with 5% FCS compared with FCS free medium", "setting": "[1]; 5% FCS, different concentrations of MGBG", "result": "significantly less efficient"}, {"measurement": "antiviral effect of MGBG and ACV in combination versus alone (syncytia formation)", "setting": "[1]; HEp2 cells, 0.5 PFU of HSV-1 per cell", "result": "potentiates the antiviral effect of ACV"}, {"measurement": "HSV-1 infection of HEp2 cells in the presence of MGBG", "setting": "[1]; MGBG at micromolar concentration", "result": "inhibited"}, {"measurement": "inhibition of viral infection", "setting": "[1]; cells pre-treated for 6 and 24 h with at least 25 μM MGBG", "result": "more than 80%"}, {"measurement": "syncytia formed compared to cells infected in the absence of MGBG", "setting": "[1]; cells pre-treated for 6 h with 10 μM MGBG, FCS free", "result": 70, "unit": "%"}, {"measurement": "syncytia formed compared to cells infected in the absence of MGBG", "setting": "[1]; cells pre-treated for 24 h with 10 μM MGBG, FCS free", "result": 36, "unit": "%"}]}]}
